Measured values reported in patent publication US20100292214A1, “Compounds with Antiparasitic Activity, Applications thereof to the Treatment of Infectious Diseases Caused by Apicomplexans” (commissariat a l'Energie Atomique, priority 2007, published 2010).
Where two headings read alike, the source gives them in different places.

How the values were obtained:
[1] = test system: asynchronous 3D7 chloroquine-sensitive P. falciparum infected red blood cells; assay: Labeled hypoxanthine incorporation assay (in vitro anti-malarial activity); format: cell-based; conditions: Plasmodium falciparum, 3D7, Erythrocyte, read-out: IC50 assessed on Plasmodium Falciparum
[2] = test system: Toxoplasma gondii RH-β1 strain; assay: microbe, parasite or virus in culture; format: cell-based; conditions: Toxoplasma gondii, read-out: IC50 assessed on Toxoplama Gondii
[3] = 3D7 chloroquine-sensitive strain, infected RBC, 48 h contact, [3H]-hypoxanthine incorporation, two independent experiments in duplicates

Row | SMILES | IC50 [1, 3] [nM] | IC50 [2] [nM] | IC50 [1] [nM]
1 | C[C@@H](COC(=O)N1CCC(N(c2ccccc2)S(=O)(=O)c2ccc(F)cc2)CC1)N(Cc1ccccc1)Cc1ccccc1 [Compound 155, (S)-2-(dibenzylamino)propyl 4-(N-phenyl-4-fluorophenylsulfonamido)piperidine-1-carboxylate] | 617 | 800 | –
2 | C[C@@H](COC(=O)N1CCC(n2c(=O)n(S(=O)(=O)c3ccccc3)c3ccccc32)CC1)N(Cc1ccccc1)Cc1ccccc1 [Compound 54, (S)-2-(dibenzylamino)propyl 4-(2-oxo-3-phenylsulfonyl-2,3-dihydro-1H-benzo[d]imidazol-1-yl)piperidine-1-carboxylate] | 230 | 1680 | –
3 | Oc1cc(Cl)ccc1Oc1ccc(Cl)cc1Cl [Triclosan, reference compound] | – | 320 | 1550
4 | O=C(OCCCN(Cc1ccccc1)Cc1ccccc1)N1CCC(n2c(=O)[nH]c3ccccc32)CC1 [Compound 29, 3-(dibenzylamino)propyl 4-(1,2-dihydro-2-oxobenzo[d]imidazol-3-yl)piperidine-1-carboxylate] | 3600 | 2500 | –
5 | C[C@@H](CNC(=O)N1CCC(n2c(=O)[nH]c3ccccc32)CC1)N(Cc1ccccc1)Cc1ccccc1 [Compound 92, N—((S)-2-(dibenzylamino)propyl)-4-(1,2-dihydro-2-oxobenzo[d]imidazol-3-yl)piperidine-1-carboxamide] | 3470 | 15000 | –
6 | O=C(OC[C@H](Cc1ccccc1)N(Cc1ccccc1)Cc1ccccc1)N1CCC(n2c(=O)n(Cc3ccccc3)c3ccccc32)CC1 [Compound 70, (S)-2-(dibenzylamino)-3-phenylpropyl 4-(1-benzyl-1,2-dihydro-2-oxobenzo[d]imidazol-3-yl)piperidine-1-carboxylate] | 953 | 3600 | –
7 | C[C@@H](COC(=O)N1CCC(N2CCCc3ccccc32)CC1)N(Cc1ccccc1)Cc1ccccc1 [Compound 8, (S)-2-(dibenzylamino)propyl 4-(3,4-dihydroquinolin-1(2H)-yl)piperidine-1-carboxylate] | 2810 | 25000 | –
8 | C[C@@H](COC(=O)N1CCC(Nc2ccccc2)CC1)N(Cc1ccccc1)Cc1ccccc1 [Compound 80, (S)-2-(dibenzylamino)propyl 4-(phenylamino)piperidine-1-carboxylate] | – | 9500 | 3410
9 | O=C(OC[C@@H](Cc1ccccc1)N(Cc1ccccc1)Cc1ccccc1)N1CCC(n2c(=O)[nH]c3ccccc32)CC1 [Compound 118, (R)-2-(dibenzylamino)-3-phenylpropyl 4-(1,2-dihydro-2-oxobenzo[d]imidazol-3-yl)piperidine-1-carboxylate] | 1490 | 2900 | –
10 | C[C@@H](COC(=O)N1CCC(n2c(=S)[nH]c3ccccc32)CC1)N(Cc1ccccc1)Cc1ccccc1 [Compound 97, (S)-2-(dibenzylamino)propyl 4-(1,2-dihydro-2-thioxobenzo[d]imidazol-3-yl)piperidine-1-carboxylate] | 1060 | 3500 | –
11 | O=C(OC[C@H](c1ccccc1)N(Cc1ccccc1)Cc1ccccc1)N1CCC(n2c(=O)[nH]c3ccccc32)CC1 [Compound 112, (S)-2-(dibenzylamino)-2-phenylethyl 4-(1,2-dihydro-2-oxobenzo[d]imidazol-3-yl)piperidine-1-carboxylate] | 500 | 3750 | –
